We go through 10 compounds from patent EP1242382B1, “TRICYCLIC PROTEIN KINASE INHIBITORS” (Wyeth, priority 1999, dated 2001).

One test has as its system HT-29 cells. The test is described as follows: Cell proliferation test procedure, HT-29 cells (MTS). The test is classed as cell-based. The conditions noted are these: Homo sapiens, read-out: HT-29 prolif %Inh. The procedure:
HT-29 cells: Compound effectiveness at inhibiting cell proliferation on plastic is performed in a 96-well format by plating 5000 cells per well in appropriate medium on day one, followed by compound addition on day 2 in serial two-fold dilutions. On day five, compound is washed away and medium containing MTS reagent (Promega) is added. Relative cell number is determined by reading the absorbance at 490nm of a dye produced by an NAD-dependent cellular enzymatic reaction.

Test [1] concerns Rat2 fibroblasts stably transformed with v-Src/Hu c-Src fusion gene. The test is described as follows: Anchorage independent Src-transformed fibroblast proliferation test procedure. The test is classed as cell-based. The conditions noted are these: Rattus norvegicus, read-out: Src TF prolif %Inh. An excerpt:
Anchorage Independent Src-transformed Fibroblast Proliferation Test Procedure: Rat2 fibroblasts stably transformed with a plasmid containing a CMV promotor controlled v-Src/Hu c-Src fusion gene in which the catalytic domain of human c-Src is inserted in place of the v-Src catalytic domain in the v-Src gene are used for the measurement of src dependent suspension growth.

In another test the target is T1, Raf-1 (c-Raf) (Homo sapiens, UniProt P04049).
T1 construct: Sf9 insect cell lysate containing full length 6his-tagged recombinant human c-Raf; host or cells: c-Raf: Sf9 insect cell lysate; MEK1 and MAPK: E. coli
T1 sequence (P04049 whole entry): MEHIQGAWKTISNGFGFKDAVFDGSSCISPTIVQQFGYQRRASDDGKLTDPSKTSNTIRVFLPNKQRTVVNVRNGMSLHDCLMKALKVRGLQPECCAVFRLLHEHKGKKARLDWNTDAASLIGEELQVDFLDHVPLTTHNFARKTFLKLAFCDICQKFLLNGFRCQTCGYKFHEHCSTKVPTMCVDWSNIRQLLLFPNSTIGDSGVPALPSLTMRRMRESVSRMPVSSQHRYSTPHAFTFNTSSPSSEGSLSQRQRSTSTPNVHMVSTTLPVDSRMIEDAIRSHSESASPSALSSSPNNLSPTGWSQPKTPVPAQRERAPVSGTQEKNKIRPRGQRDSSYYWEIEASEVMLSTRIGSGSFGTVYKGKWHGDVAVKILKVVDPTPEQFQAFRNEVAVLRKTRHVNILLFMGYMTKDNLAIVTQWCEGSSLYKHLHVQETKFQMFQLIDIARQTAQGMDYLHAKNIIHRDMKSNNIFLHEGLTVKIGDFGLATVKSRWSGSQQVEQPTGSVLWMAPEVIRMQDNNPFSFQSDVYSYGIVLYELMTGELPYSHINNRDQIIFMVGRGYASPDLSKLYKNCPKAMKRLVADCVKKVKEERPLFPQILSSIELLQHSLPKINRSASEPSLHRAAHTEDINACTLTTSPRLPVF
The experiment in a line: Raf1 kinase cascade assay procedure. The format is biochemical. The procedure:
(Specific Activity: ~200U/ml). Human Non-active Mek-1-GST and human GST-MAP kinase (recombinant proteins produced in E. coli).
• 1. Assay Dilution Buffer (ADB): 20mM MOPS, pH 7.2, 25mM β-glycerol phosphate, 5mM EGTA, 1mM sodium orthovanadate, 1mM dithiothreitol. • 2. Magnesium/ATP Cocktail: 500µM cold ATP and 75 mM magnesium chloride in ADB. • 4. Active Kinase: Human Active c-Raf: Use at 0.4U per assay point • 5. Non-active GST-MEK1: Use at 0.1µg per assay point. • 6. Non-active GST-p42 MAP Kinase: Use at 1.0 µg per assay point
• 1. TBST - Tris (50 mM, pH 7.5), NaCl (150 mM), Tween-20 (0.05 %) • 2. Superblock (Pierce) • 3. Anti-GST Ab (Pharmacia) • 4. Anti-Phospho MAPK (Sigma) • 5. Anti-Mouse Ab / Europium conjugate (Wallac)
First Stage: c-Raf Dependent Activation of GST-MEK and GST-MAPK • 1. Add […] of ADB per assay (i.e. per well of a 96 well plate) • 2. Add 10 ml of 0.5 mM cold ATP and 75 mM magnesium chloride in ADB. • 3. Add 2 ml of c-Raf (0.4U/assay), in conjunction with 1.6ml non-active MEK1 ([…]). • 4. Add 4 ml of non-active GST-p42 MAP Kinase (1.0 mg/assay). • 5. Incubate for 60 minutes at 30°C in a shaking incubator. • 6. Transfer this mixture to an anti-GST Ab coated 96 well plate (Nunc Immunosorb plates coated o/n with a-GST, then blocked with Pierce Superblock). • 7. Incubate for 60 minutes at 30°C in a shaking incubator Wash 3X with TBST, add Anti-Phospho MAPK (Sigma) (1:3000) • 6. Incubate for 60 minutes at 30°C in a shaking incubator • 7. Wash 3X with TBST, add Anti-Mouse Ab / Europium conjugate (Wallac) (1:500) • 8. Incubate for 60 minutes at 30°C in a shaking incubator • 9. Wash 3X with TBST, Read plates in Wallac Victor model Plate Reader. • 10. Collect data analyze in Excel for single point and IC50 determinations.
Typically Raf-1 assay is run at compound concentrations from 10 µM to 1 nM in half log dilutions. (% inhibition is determined for each compound concentration).

In test [2] the target is T2, Kinase insert Domain containing Receptor (KDR; the catalytic domain of the VEGF receptor) (Homo sapiens, UniProt P35968).
T2 construct: KDR; the catalytic domain of the VEGF receptor
T2 sequence (P35968 834-1162 limits assumed): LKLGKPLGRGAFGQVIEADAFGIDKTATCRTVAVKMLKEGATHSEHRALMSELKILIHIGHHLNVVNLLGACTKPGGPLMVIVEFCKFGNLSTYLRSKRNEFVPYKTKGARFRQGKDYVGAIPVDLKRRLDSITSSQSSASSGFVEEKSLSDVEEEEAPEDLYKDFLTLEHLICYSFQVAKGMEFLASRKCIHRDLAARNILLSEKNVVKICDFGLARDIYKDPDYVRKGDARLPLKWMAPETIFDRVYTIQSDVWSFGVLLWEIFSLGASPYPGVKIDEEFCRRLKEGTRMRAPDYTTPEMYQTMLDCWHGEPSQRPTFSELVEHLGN
The test is described as follows: Inhibition of Kinase insert Domain containing Receptor (KDR). The test is classed as biochemical. The note with it: read-out: KDR %Inh (10 µM). How it is done:
KDR protein is mixed, in the presence or absence of a inhibitor compound, with a substrate peptide to be phosphorylated (a copolymer of glutamic acid and tyrosine, E:Y :: 4:1) and other cofactors such as Mg^++ and sodium vanadate (a protein tyrosine phosphatase inhibitor) in an appropriate buffer to maintain pH (7.2). ATP and a radioactive tracer (either P^32- or P^33-labeled ATP) is then added to initiate phosphorylation. After incubation, the radioactive phosphate associated with the acid-insoluble fraction of the test procedure mixture is then quantified as reflection of substrate phosphorylation.

The test system of test [3] is Human adenocarcinoma cell line LoVo. The experiment in a line: Cell based screen for inhibitors of Raf kinase, quantitative assay. The conditions noted are these: 96 h, four days incubation. How it is done:
(§1) • Cell Lines: Human adenocarcinoma cell line LoVo which is known to be growth inhibited by low nM concentrations of a reference standard inhibitor of Ras and human adenocarcinoma cell line CaCo-2, which is known to be growth resistant to the same reference compound. • Cell Media : RPMI 1640 with 10% Fetal Bovine Serum supplemented with L-glutamine and Pennicilin/Streptomycin. • Compounds: Supplied usually as a 10 mM stock in 100% DMSO. • Normal Saline: 150 mM NaCl • Trichloroacetic Acid (TCA): 50% (w/v) in water • Sulforhodamine B (SRB): 0.4% (w/v) in 1% Acetic Acid • Tris Base: 10 mM in water
(§2) Cells are plated at 2000 cells per well for cell line LoVo and 1500 cells for cell line CaCo-2 in 96 well plates. Cells are plated in media (200 µl) and allowed to adhere overnight at 37°C. At 24 hours post plating, compounds are added directly at a volume of 0.5 µl. For the qualitative screen (compounds screened at 25 µM) compound is added directly to cells. For the quantitative screen, compound is first diluted in DMSO to generate concentrations of compound or reference standard of: 1, 5, 10 and 25 µM. It is advisable to make the dilutions in an identical 96 well plate so that compounds can be added using a multichannel micropipettor set at 0.5 µl. The cells are then incubated for four days after which the media is removed using a 12 well manifold by first tipping the plate forward at a 45 degree angle and then inserting the manifold in an upright orientation to prevent the tips of the manifold from disturbing cells at the bottom of the plate. 200 µl of normal saline is then added to each well using an 8 well multichannel pipettor, followed by the careful addition of 50 µl of 50% TCA. The plates are then incubated for 2 hours at 4°C, after which the supernatant is removed using the same technique as above and the plated washed twice with 200 µl water. The plates are then air dried and 50 µl of SRB stock solution is carefully added so that the entire bottom of each well is covered. This again can be used using an 8 well multichannel pipettor. The SRB is incubated with fixed cells for 15 minutes at room temperature after which the SRB is removed with the manifold as described above and the plates washed twice with 350 µl of 1% acetic acid per well each time. The plates are then air dried after which the bound SRB is released from protein by the addition of 200 µl of Tris base. Resolubilizing the SRB is aided by placing the plates on a rotator for 15-30 minutes. The absorbance of each well is determined at 550 or 562 nm using a microtiter plate reader.
(§3) Each compound or dilution thereof is performed in triplicate. Outliers are identified by visual inspection of the data. Each plate should have a "0" control (vehicle only).
(§4) Quantitative Assay: A standard curve is constructed by plotting the concentration of compound against the average absorbance calculated at that concentration. […] Multiple entries for a given compound indicate that it is tested multiple times.

Test [4] has as its system human adenocarcinoma cell line CaCo-2. The description is as above. The conditions noted are these: Caco-2, 96 h, four days incubation. The procedure: as §1, §2, §3, §4
For a further test, the system named is BxPC3. The test is described as above. The conditions noted are these: Homo sapiens, BXPC-3.
The subject of the next test is LnCAP. The description is as above. The note with it: Homo sapiens.

The term IC50 denotes the concentration that gives 50% inhibition. Lower therefore signals greater potency.

As to `N#Cc1cnc2c(c1Nc1ccc(Cl)cc1Br)C=C1N=CN=C1C2` [Example 38, 8-(2-Bromo-4-chlorophenylamino)imidazo[4,5-g]quinoline-7-carbonitrile], the inhibition at 10 µM with HT-29 cells came to 25%; in test [1], 0%.

As for `COc1cc(Nc2c(C#N)cnc3c2C=C2N=CN=C2C3)c(Br)cc1Cl` [Example 39, 8-(2-Bromo-4-chloro-5-methoxyphenylamino)imidazo[4,5-g]quinoline-7-carbonitrile], the inhibition at 10 µM came to 35% in the test with HT-29 cells and 25% in test [1]. On Raf-1 (c-Raf), this compound registered a concentration for half-maximal inhibition (IC50) of 900 nM.

Consider `COc1ccc(Cl)c(Nc2c(C#N)cnc3c2C=C2N=CN=C2C3)c1` [Example 40, 8-(2-Chloro-5-methoxy-phenylamino)imidazo[4,5-g]quinoline-7-carbonitrile], for which the inhibition at 10 µM in the test on HT-29 cells was found to be 10%; in test [1], 0%. The same compound displayed an IC50 on Raf-1 (c-Raf) of 700 nM.

In the case of `COc1cc(Nc2c(C#N)cnc3c2C=C2N=CN=C2C3)cc(OC)c1OC` [Example 42, 8-(3,4,5-Trimethoxyanilino)imidazo[4,5-g]quinoline-7-carbonitrile], the inhibition at 10 µM with HT-29 cells was found to be 0%. The inhibition at 0.22 µM in test [1] (@ dose 0.22 µM) stood at 50%.

For `Cc1ccc(Nc2c(C#N)cnc3c2sc2ccccc23)cc1O` [Example 70, 4-(3-Hydroxy-4-methylphenylamino)benzo[4,5]thieno[3,2-b]pyridine-3-carbonitrile], the inhibition at 10 µM in test [2] was determined as 22%.

As to `COc1cc2cc3c(Nc4ccc(Sc5nccn5C)c(Cl)c4)c(C#N)cnc3cc2cc1OCCN1CCOCC1` [Example 149, 4-[3-Chloro-4-(1-methyl-1H-imidazol-2-ylsulfanyl)phenylamino]-7-methoxy-8-(2-morpholin-4-yl-ethoxy)benzo[g]quinoline-3-carbonitrile], the IC50 against Raf-1 (c-Raf) came to 4 nM; in test [3], 6 nM; in test [4] it was 900 nM; in the test on BxPC3, 37 nM; in the test with LnCAP, 53 nM.

With `COc1cc2cc3c(Nc4ccc(Sc5nccn5C)c(Cl)c4)c(C#N)cnc3cc2cc1OCCCN1CCOCC1` [Example 151, 4-[3-Chloro-4-(1-methyl-1H-imidazol-2-ylsulfanyl)phenylamino]-7-methoxy-8-(3-morpholin-4-yl-propoxy)benzo[g]quinoline-3-carbonitrile], the IC50 against Raf-1 (c-Raf) stood at 7 nM; in test [3], 8.5 nM; in test [4] it was 700 nM; with BxPC3 it was 40 nM; with LnCAP, 12 nM.

In the case of `COc1cc2cc3c(Nc4ccc(Sc5nccn5C)c(Cl)c4)c(C#N)cnc3cc2cc1OCCN1CCN(C)CC1` [Example 152], the IC50 on Raf-1 (c-Raf) was 8 nM; in test [3], 29 nM; in test [4] it was > 1000 nM; in the test with BxPC3 it was 40 nM; with LnCAP it was 32 nM.

Regarding `COc1cc2cc3c(Nc4ccc(Sc5nccn5C)c(Cl)c4)c(C#N)cnc3cc2cc1OCCn1nccn1` [Example 153, 4-[3-chloro-4-(1-methyl-1H-imidazol-2-ylsulfanyl)phenylamino]-7-methoxy-8-(2-[1,2,3]triazol-2-yl-ethoxy)benzo[g]quinoline-3-carbonitrile], the IC50 on Raf-1 (c-Raf) was 12 nM; in test [3], 9.4 nM; in test [4] it was > 1000 nM; in the test on BxPC3 it was 38 nM; in the test on LnCAP, 19 nM.

As to `COc1cc2cc3c(Nc4ccc(Sc5nccn5C)c(Cl)c4)c(C#N)cnc3cc2cc1OCCn1ccnn1` [Example 154, 4-[3-Chloro-4-(1-methyl-1H-imidazol-2-ylsulfanyl)phenylamino]-7-methoxy-8-(2-[1,2,3]triazol-1-yl-ethoxy)benzo[g]quinoline-3-carbonitrile], the IC50 at Raf-1 (c-Raf) was 8 nM; in test [3], 43 nM; in test [4] it was > 1000 nM; in the test with BxPC3, 40 nM.
